The values that follow come from patent publication US6143910A, “Methods for preparation and use of 1α, 24(S) -dihydroxy vitamin D2” (priority 1998, dated 2000).

Data set [1] can be described thus: Prophylaxis of postmenopausal bone loss in healthy postmenopausal women. It counts as in vivo, human. The conditions noted are these: at or above 1.0 μg/day. On the procedure: A clinical study is conducted with healthy postmenopausal women having ages between 55 and 60 years. The study involves up to 80 patients randomly divided into two treatment groups, and continues for 24 to 36 months. One treatment group receives a constant dosage of 1α,24(S)-dihydroxy vitamin D2 (u.i.d.; a dose level at or above 1.0 μg/day) and the other receives a matching placebo. The study is conducted as indicated in Example 2 above.

The nature of data set [2]: Dermatological testing, topical treatment of dermatitis. Format: in vivo, human. The conditions noted are these: ointment 10 μg per gram, twice daily, four to six weeks. How it is done: Compositions containing 1α,24(S)-dihydroxy vitamin D2 are evaluated for therapeutic efficacy of the composition in the topical treatment of dermatitis (contact and ectopic). The composition evaluated is an ointment containing 10 μg of 1α,24-dihydroxy vitamin D2 per gram of ointment in a petrolatum-almond oil base. […] The patients are treated in an out-patient clinic. They are instructed to use the preparation two times a day.
The ointment is as far as possible applied to a single lesion, or to an area of the disease. The ointment and its container are weighed before the treatment starts and returned with any unused contents for reweighing at the end of the treatment.
The area of the lesion treated is estimated and recorded, and the lesion is photographed as required, together with suitable "control" lesions. The latter are preferably lesions of similar size and stage of development, either in the vicinity of the treated lesion or symmetrically contralateral. Relevant details of the photographic procedure are recorded so as to be reproduced when the lesions are next photographed (distance, aperture, angle, background, etc.). The ointment is applied twice daily and preferably left uncovered. The "control" lesions are left untreated, but if this is not possible, the treatment used on them is noted. […]

The test system of the next data set is HL-60 promyelocytes. Briefly: HL-60 cell differentiation assay. It counts as cell-based. The conditions noted are these: dose-response study. On the procedure:
A dose-response study is conducted with 1α,24(S)-(OH)2 D2 in the HL-60 cell differentiation assay as described by DeLuca and Ostrom (DeLuca, H. F. and Ostrem, V. K., Prog. Clin. Biol. Res., vol. 259, pp. 41-55 (1988)). In this study, 1α,25-(OH)2 D3 is used as a positive control and appropriate solvents are used as negative controls. The following variables are evaluated: nonspecific acid esterase activity, nitroblue tetrazolium (NBT) reduction, and thymidine incorporation.

The next data set addresses T1, vitamin D receptor (VDR) (Homo sapiens, UniProt P11473).
T1 sequence (P11473 1-427): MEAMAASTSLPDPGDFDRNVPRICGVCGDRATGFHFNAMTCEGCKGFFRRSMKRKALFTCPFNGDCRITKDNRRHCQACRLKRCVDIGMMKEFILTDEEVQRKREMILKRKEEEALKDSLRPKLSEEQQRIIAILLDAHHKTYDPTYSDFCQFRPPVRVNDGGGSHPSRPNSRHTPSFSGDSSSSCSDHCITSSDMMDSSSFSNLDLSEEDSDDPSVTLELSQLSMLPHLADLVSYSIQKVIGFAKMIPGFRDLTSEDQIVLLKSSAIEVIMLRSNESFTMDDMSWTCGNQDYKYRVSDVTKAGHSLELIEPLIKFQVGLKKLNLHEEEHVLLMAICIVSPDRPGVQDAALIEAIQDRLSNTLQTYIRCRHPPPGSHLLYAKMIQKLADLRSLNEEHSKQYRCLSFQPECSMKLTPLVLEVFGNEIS
Briefly: Vitamin D-dependent transcriptional activation, growth hormone production in co-transfected COS-1 cells. It counts as cell-based. On the procedure: The biological activity in vitro of chemically synthesized 1α,24(S)-(OH)2 D2 and 1α,24(R)-(OH)2 D2 was measured using a vitamin D-dependent transcriptional activation model system in which a vitamin D receptor (VDR)-expressing plasmid pSG5-hVDR1/3and a plasmid p(CT4)^4 TKGH containing a Growth Hormone (GH)-gene, under the control of a vitamin D-responsive element (VDRE) were co-transfected into Green monkey kidney, COS-1 cells. DNA's for these two vectors were supplied by Dr. Mark Haussler, Department of Biochemistry, University of Arizona, Tucson, Ariz.
Tranfected cells were incubated with vitamin D metabolites and growth hormone production was measured.

Data set [3] in a line: Preventive treatment of bone mass loss in postmenopausal osteoporotic women. Format: in vivo, human. The note with it: at or above 1.0 μg/day, 24 to 36 months. On the procedure:
A clinical study is conducted with postmenopausal osteoporotic out-patientshaving ages between 55 and 75 years. The study involves up to 120 patients randomly divided into three treatment groups and continues for 24 to 36 months. Two of the treatment groups receive constant dosages of 1α,24(S)-dihydroxy vitamin D2 (u.i.d.; two different dose levels at or above 1.0 μg/day) and the other group receives a matching placebo. All patients maintain a normal intake of dietary calcium (500 to 800 mg/day) and refrain from using calcium supplements. Efficacy is evaluated by pre- and post-treatment comparisons of the patient groups with regard to (a) total body calcium retention, and (b) radial and spinal bone mineral density as determined by dual-photon absorptiometry (DPA) or dual-energy x-ray absorptiometry (DEXA). Safety is evaluated by comparisons of urinary hydroxyproline excretion, serum and urine calcium levels, creatinine. clearance, blood urea nitrogen, and other routine determinations.

On to `C=C1/C(=C\C=C2/CCC[C@]3(C)[C@@H]([C@H](C)/C=C/[C@@](C)(O)C(C)C)CC[C@@H]23)C[C@@H](O)C[C@@H]1O` [1α,24(S)-(OH)2 D2, 1α,24(S)-dihydroxy Vitamin D2], for which the “Losses in total body calcium, radial or spinal bone densities versus baseline” value in data set [1] (24 to 36 months) was “reduced losses”. Also, the Monitored safety parameters entry in data set [1] (long-term) was “confirm the safety”. Further, in data set [2], the Incidence of hypercalcemia result is “insignificant incidence of hypercalcemia” and the “Lesion severity scores (erythema, scaling, thickness, rated 0 to 3)” value is “lower scores than the control lesions”. The “Promotion of differentiation of HL-60 promyelocytes to monocytes” value in the data set with HL-60 promyelocytes is given as “potent activity”. Besides, the “Activity in the transcriptional activation system compared with 1α,24(R)-(OH)2 D2” value on vitamin D receptor (VDR) was “significantly more activity”. For the same compound, in data set [3], the “Incidence of hypercalcemia or hypercalciuria” value was “insignificant incidence”; the “Total body calcium, radial and spinal bone densities versus placebo” value is “significantly higher”.
